Measured values published in patent publication US20180000085A1, “USE OF PICOLINAMIDE COMPOUNDS WITH FUNGICIDAL ACTIVITY” (DOW AGROSCIENCES LLC, priority 2014, published 2018).

Legend:
Puccinia triticina = assay: Wheat brown rust (PUCCRT) disease control on wheat seedlings; format: in vivo; set-up: key to PUCCRT 3DC, HV activity at 100 ppm (% control rating) / PUCCRT disease control, 3DC / PUCCRT 1DP disease control rating, HV activity / PUCCRT 3DC disease control rating, HV activity / PUCCRT 3DC, LV activity at 125.1 g/H (% Control rating) / PUCCRT 1DP, LV activity at 125.1 g/H (% Control rating) / PUCCRT 3DC disease control rating, LV activity at 125.1 g/H / PUCCRT 1DP disease control rating, LV activity at 125.1 g/H / PUCCRT 3DC disease control rating, HV activity at 100 ppm / PUCCRT 1DP disease control rating, HV activity at 100 ppm / HV activity at 100 ppm PUCCRT 3DC (disease control rating) / LV activity at 125.1 g/H PUCCRT 1DP (disease control rating) / LV activity at 125.1 g/H PUCCRT 3DC (disease control rating): A: > 80; B: ≤ 80; C: Not Tested; D: No Activity Observed in the Reported Assay; details: HV application at 100 ppm, wheat brown rust; for PUCCRT 1DP disease control rating, HV activity: 1 Day Protectant; for PUCCRT 3DC disease control rating, HV activity: 3 Day Curative
Description: All fungicides were evaluated using the aforementioned method for their activity vs. all target diseases, unless stated otherwise. Wheat leaf blotch and brown rust activity were also evaluated using track spray applications, in which case the fungicides were formulated as EC formulations, containing 0.1% Trycol 5941 in the spray solutions. Wheat plants (variety Yuma) were grown from seed in a greenhouse in 50% mineral soil/50% soil-less Metro mix until the first leaf was fully emerged, with 7-10 seedlings per pot. These plants were inoculated with an aqueous spore suspension of Zymoseptoria tritici either prior to or after fungicide treatments. After inoculation the plants were kept in 100% relative humidity (one day in a dark dew chamber followed by two to three days in a lighted dew chamber at 20° C.) to permit spores to germinate and infect the leaf. The plants were then transferred to a greenhouse set at 20° C. for disease to develop. When disease symptoms were fully expressed on the 1st leaves of untreated plants, infection levels were assessed on a scale of 0 to 100 percent disease severity. Percent disease control was calculated using the ratio of disease severity on treated plants relative to untreated plants. Example B: Evaluation of Fungicidal Activity: Wheat Brown Rust (Puccinia triticina; Synonym: Puccinia recondita f. sp. Tritici; Bayer Code PUCCRT) Wheat plants (variety Yuma) were grown from seed in a greenhouse in 50% mineral soil/50% soil-less Metro mix until the first leaf was fully emerged, with 7-10 seedlings per pot. These plants were inoculated with an aqueous spore suspension of Puccinia triticina either prior to or after fungicide treatments. […] The plants were then transferred to a greenhouse set at 24° C. for disease to develop. Fungicide formulation, application and disease assessment followed the procedures as described in the Example A.

Zymoseptoria tritici = assay: Leaf blotch of wheat (SEPTTR) disease control on wheat seedlings; format: in vivo; set-up: key to SEPTTR 1DP, HV activity at 100 ppm (% control rating) / SEPTTR 3DC, HV activity at 100 ppm (% control rating) / SEPTTR disease control, 1DP / SEPTTR disease control, 3DC / SEPTTR 1DP disease control rating, HV activity / SEPTTR 3DC disease control rating, HV activity / SEPTTR 3DC, LV activity at 125.1 g/H (% Control rating) / SEPTTR 1DP, LV activity at 125.1 g/H (% Control rating) / SEPTTR 1DP disease control rating, LV activity at 125.1 g/H / SEPTTR 3DC disease control rating, LV activity at 125.1 g/H / SEPTTR 3DC disease control rating, HV activity at 100 ppm / SEPTTR 1DP disease control rating, HV activity at 100 ppm / HV activity at 100 ppm SEPTTR 3DC (disease control rating) / HV activity at 100 ppm SEPTTR 1DP (disease control rating) / LV activity at 125.1 g/H SEPTTR 1DP (disease control rating) / LV activity at 125.1 g/H SEPTTR 3DC (disease control rating): A: > 80; B: ≤ 80; C: Not Tested; D: No Activity Observed in the Reported Assay; details: HV application at 100 ppm, wheat leaf blotch; for SEPTTR 1DP disease control rating, HV activity: 1 Day Protectant; for SEPTTR 3DC disease control rating, HV activity: 3 Day Curative
Description: All fungicides were evaluated using the aforementioned method for their activity vs. all target diseases, unless stated otherwise. Wheat leaf blotch and brown rust activity were also evaluated using track spray applications, in which case the fungicides were formulated as EC formulations, containing 0.1% Trycol 5941 in the spray solutions. Wheat plants (variety Yuma) were grown from seed in a greenhouse in 50% mineral soil/50% soil-less Metro mix until the first leaf was fully emerged, with 7-10 seedlings per pot. These plants were inoculated with an aqueous spore suspension of Zymoseptoria tritici either prior to or after fungicide treatments. After inoculation the plants were kept in 100% relative humidity (one day in a dark dew chamber followed by two to three days in a lighted dew chamber at 20° C.) to permit spores to germinate and infect the leaf. The plants were then transferred to a greenhouse set at 20° C. for disease to develop. When disease symptoms were fully expressed on the 1st leaves of untreated plants, infection levels were assessed on a scale of 0 to 100 percent disease severity. Percent disease control was calculated using the ratio of disease severity on treated plants relative to untreated plants.

Row | Compound | PUCCRT 1DP disease control rating, HV activity (Puccinia triticina) | PUCCRT 3DC disease control rating, HV activity (Puccinia triticina) | SEPTTR 1DP disease control rating, HV activity (Zymoseptoria tritici) | SEPTTR 3DC disease control rating, HV activity (Zymoseptoria tritici)
1 | CCCOC[C@H](C)OC(=O)[C@H](C)NC(=O)c1nccc(OC)c1O [Cmpd 334] | D | B (≤ 80) | B (≤ 80) | B (≤ 80)
2 | COc1ccnc(C(=O)N[C@@H](C)C(=O)O[C@@H](C)COc2ccccc2)c1O [Cmpd 335] | A (> 80) | A (> 80) | B (≤ 80) | D
3 | COc1ccnc(C(=O)N[C@@H](C)C(=O)O[C@@H](C)COC(=O)C(C)C)c1O [Cmpd 336] | D | D | B (≤ 80) | B (≤ 80)
4 | COc1ccnc(C(=O)N[C@@H](C)C(=O)O[C@@H](C)COCC2CC2)c1O [Cmpd 338] | B (≤ 80) | D | B (≤ 80) | D
5 | COc1ccnc(C(=O)N[C@@H](C)C(=O)O[C@@H](C)COCC(C)C)c1O [Cmpd 339] | B (≤ 80) | A (> 80) | B (≤ 80) | D
6 | COc1ccnc(C(=O)N[C@@H](C)C(=O)O[C@@H](C)COC2CCCC2)c1O [Cmpd 340] | B (≤ 80) | A (> 80) | B (≤ 80) | D
7 | COc1ccnc(C(=O)N[C@@H](C)C(=O)O[C@@H](C)COC(C)(C)C)c1O [Cmpd 341] | B (≤ 80) | B (≤ 80) | B (≤ 80) | B (≤ 80)
8 | COc1ccnc(C(=O)N[C@@H](C)C(=O)O[C@@H](C)[C@@H](Cc2ccccc2)OC)c1O [Cmpd 342] | B (≤ 80) | A (> 80) | D | B (≤ 80)
9 | COc1ccnc(C(=O)N[C@@H](C)C(=O)O[C@@H](C)[C@@H](Cc2ccccc2)OCC(C)C)c1O [Cmpd 343] | A (> 80) | A (> 80) | A (> 80) | B (≤ 80)
10 | COc1ccnc(C(=O)N[C@@H](C)C(=O)O[C@@H](C)[C@@H](Cc2ccccc2)OCC2CC2)c1O [Cmpd 344] | B (≤ 80) | A (> 80) | D | B (≤ 80)
11 | COc1ccnc(C(=O)N[C@@H](C)C(=O)O[C@@H](C)[C@@H](Cc2ccccc2)Oc2ccccc2)c1O [Cmpd 345] | A (> 80) | A (> 80) | D | B (≤ 80)
12 | COc1ccnc(C(=O)N[C@@H](C)C(=O)O[C@@H](C)[C@H](Oc2ccc(Cl)cc2Cl)C2CCCC2)c1O [Cmpd 346] | B (≤ 80) | D | D | B (≤ 80)
13 | COc1ccnc(C(=O)N[C@@H](C)C(=O)O[C@@H](C)[C@@H](Oc2ccccc2)C(C)C)c1O [Cmpd 347] | B (≤ 80) | A (> 80) | B (≤ 80) | B (≤ 80)
14 | COc1ccnc(C(=O)N[C@@H](C)C(=O)O[C@H](C)[C@@H](Oc2ccccc2)C(C)C)c1O [Cmpd 349] | D | D | D | B (≤ 80)
15 | COc1ccnc(C(=O)N[C@@H](C)C(=O)O[C@H](C)[C@@H](Oc2ccccc2)c2ccccc2)c1O [Cmpd 350] | D | A (> 80) | D | B (≤ 80)
16 | COc1ccnc(C(=O)N[C@H](C)C(=O)O[C@H](C)[C@@H](Oc2ccccc2)C(C)C)c1O [Cmpd 351] | D | D | B (≤ 80) | D
17 | COc1ccnc(C(=O)N[C@H](C)C(=O)O[C@H](C)[C@@H](Oc2ccccc2)c2ccccc2)c1O [Cmpd 352] | D | D | D | B (≤ 80)
18 | CCC(CC)[C@@H](OCC1CC1)[C@H](C)OC(=O)[C@H](C)NC(=O)c1nccc(OC)c1O [Cmpd 353] | A (> 80) | A (> 80) | B (≤ 80) | B (≤ 80)
19 | CCC(CC)[C@@H](OCC(C)C)[C@H](C)OC(=O)[C@H](C)NC(=O)c1nccc(OC)c1O [Cmpd 354] | B (≤ 80) | A (> 80) | B (≤ 80) | B (≤ 80)
20 | COc1ccnc(C(=O)N[C@@H](C)C(=O)O[C@@H](C)[C@@H](CC(C)C)Oc2ccccc2)c1O [Cmpd 355] | A (> 80) | A (> 80) | A (> 80) | A (> 80)
21 | COc1ccnc(C(=O)N[C@@H](C)C(=O)O[C@@H](C)[C@H](Oc2ccccc2)C2CCCC2)c1O [Cmpd 356] | A (> 80) | A (> 80) | A (> 80) | B (≤ 80)
22 | COc1ccnc(C(=O)N[C@@H](C)C(=O)O[C@@H](C)[C@H](Oc2cccc(Cl)c2)C(C)C)c1O [Cmpd 357] | A (> 80) | A (> 80) | A (> 80) | A (> 80)
